The IC50 is the concentration that gives 50% inhibition. A low value points to greater potency.

For eleven compounds, IC50 results are on record in patent US7541367B2, “3-benzoimidazolyl-pyrazolopyridines useful in treating kinase disorders” (Janssen Pharmaceutica, N.V., priority 2005, dated 2009).

For one test, the system named is A375 malignant melanoma. The test can be described thus: Cell Proliferation Inhibition Assay (14C-thymidine incorporation), A375.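 Note: proliferation measured by radiolabelled thymidine uptake into new DNA, counted in scintillating 96-well plates, compound-treated wells compared with DMSO-only control wells.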 It counts as cell-based. Particulars: Homo sapiens, A-375, A375 cells. (Dividing cells build labelled thymidine or BrdU into new DNA.)
The target in a further test is T1, RET (Homo sapiens, UniProt P07949).
T1 construct: polyhistidine (N)
T1 sequence (P07949 658-1114 limits assumed): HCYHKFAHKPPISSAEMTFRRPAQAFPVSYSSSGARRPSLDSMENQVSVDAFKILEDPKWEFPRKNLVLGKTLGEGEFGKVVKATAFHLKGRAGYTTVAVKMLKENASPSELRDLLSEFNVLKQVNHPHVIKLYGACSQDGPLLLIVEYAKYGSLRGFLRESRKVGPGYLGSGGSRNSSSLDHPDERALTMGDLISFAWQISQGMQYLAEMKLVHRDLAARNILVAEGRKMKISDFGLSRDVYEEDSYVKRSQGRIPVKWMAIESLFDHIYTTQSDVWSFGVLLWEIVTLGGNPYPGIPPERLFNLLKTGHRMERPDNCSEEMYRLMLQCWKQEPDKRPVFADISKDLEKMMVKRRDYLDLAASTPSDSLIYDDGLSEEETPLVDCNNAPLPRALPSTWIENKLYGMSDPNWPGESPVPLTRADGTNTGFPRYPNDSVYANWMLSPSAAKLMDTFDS
Description: RET kinase screening assay (33P-ATP FlashPlate).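 Note: biotinylated peptide substrate captured on streptavidin FlashPlate, 33P phosphate transfer read by scintillation counting, 1% DMSO, lower incorporation means inhibition, percent relative to per-plate maximum and minimum signals.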 The class given is biochemical. Particulars: human RET kinase domain; 10 μM ATP; 1 hr at 30° C.

The target in a further test is T2, c-Src kinase (Homo sapiens, UniProt P12931).
T2 construct: purchased Upstate Biotechnology, Lake Placid, N.Y
T2 sequence (P12931 whole entry): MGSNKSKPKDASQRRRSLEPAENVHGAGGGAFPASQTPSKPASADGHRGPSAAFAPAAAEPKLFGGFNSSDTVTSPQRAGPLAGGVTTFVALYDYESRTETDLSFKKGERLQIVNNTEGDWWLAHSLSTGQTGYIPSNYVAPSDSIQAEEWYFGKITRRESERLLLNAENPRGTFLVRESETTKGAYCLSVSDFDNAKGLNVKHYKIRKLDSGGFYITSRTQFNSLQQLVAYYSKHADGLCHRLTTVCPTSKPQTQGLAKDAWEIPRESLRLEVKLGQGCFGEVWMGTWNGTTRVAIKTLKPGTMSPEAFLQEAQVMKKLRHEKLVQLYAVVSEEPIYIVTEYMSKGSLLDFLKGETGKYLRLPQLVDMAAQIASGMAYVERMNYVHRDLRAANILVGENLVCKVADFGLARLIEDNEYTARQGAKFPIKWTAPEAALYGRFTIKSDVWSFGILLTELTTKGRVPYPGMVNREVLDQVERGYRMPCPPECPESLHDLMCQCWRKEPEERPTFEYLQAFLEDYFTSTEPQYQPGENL
The test can be described thus: c-Src Kinase Assay. The class given is biochemical. Conditions: 5 μM ATP. How it is done: A mixture of a 10× kinase buffer (80 mM MOPS at pH 7.0, 2 mM EDTA and 100 mM Magnesium Chloride), ATP (5 μM final from a 10 mM stock), a Cdc2 peptide […] (100 μM final from a 2.5 mM stock), γ-^33P ATP (10 μCi/μL stock) and water (for a total of 20 μL/well) was added to each well of a Streptavidin Flashplate.
Test compound in 100% DMSO (0.5 μL) was added to the appropriate wells. Diluted c-Src kinase (human) (Accession Number SWISS-PROT P12931) (Upstate Biotechnology, Lake Placid, N.Y.) (diluted in a buffer consisting of 20 mM MOPS at pH 7.0, 1 mM EDTA, β-mercaptoethanol (0.1%), Brij-35 (0.01%), glycerol (5%), and 1 mg/mL bovine serum albumin) (2.5 μL) was added to the wells to initiate the reactions. The reaction plates were incubated at 30° C. for 40 min. The reaction was terminated by the addition of a 3% phosphoric acid solution (5 μL). The reaction product (10 μL) was spotted onto a P30 filtermat and washed for 5 minutes in phosphoric acid (75 mM). The wash sequence was repeated two more times, followed with one final wash in methanol. The plates were then dried, sealed and read on the TopCount scintillation counter after adding 30 μL scintillation fluid.
A maximum and minimum signal for the assay was determined on each plate. The percent inhibition of a test compound was calculated according to the formula: […]
For a series of test concentrations, the IC50 was derived by graphing percent inhibition against the log of the concentrations tested for a given compound with results shown in Table 2
For compounds with multiple values, each value represents a separate assay result.

In test [1] the test system is HeLa cervical adenocarcinoma. Description: Cell Proliferation Inhibition Assay (14C-thymidine incorporation), HeLa.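 Note: test compound in DMSO added to cells seeded in scintillating 96-well plates, DMSO-only wells as control, uptake of methyl 14C-thymidine into new DNA counted.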 The class given is cell-based. Conditions: Homo sapiens, HeLa, HeLa cells.
The next test addresses T3, VEGF-R2 (Rattus norvegicus, UniProt O08775).
T3 construct: polyhistidine (N)
Description: VEGF-R2 kinase screening assay (33P-ATP FlashPlate).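 Note: Read-out is ³³P incorporation from ³³P-γ-ATP into biotinylated peptide substrate captured on streptavidin FlashPlate, counted by scintillation, 1% DMSO final, inhibition scaled between per-plate maximum and minimum signals.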 Particulars: rat VEGF-R2 kinase domain; 10 μM ATP; 1 hr at 30° C. It counts as biochemical.

In another test the target is T4, HER2 (Homo sapiens, UniProt P04626).
T4 construct: GST (Glutathione-S-Transferase) (N); HIS6 (N); thrombin cleavage site (N); purchased Proqinase, Freiburg, Germany
T4 sequence (P04626 679-1255): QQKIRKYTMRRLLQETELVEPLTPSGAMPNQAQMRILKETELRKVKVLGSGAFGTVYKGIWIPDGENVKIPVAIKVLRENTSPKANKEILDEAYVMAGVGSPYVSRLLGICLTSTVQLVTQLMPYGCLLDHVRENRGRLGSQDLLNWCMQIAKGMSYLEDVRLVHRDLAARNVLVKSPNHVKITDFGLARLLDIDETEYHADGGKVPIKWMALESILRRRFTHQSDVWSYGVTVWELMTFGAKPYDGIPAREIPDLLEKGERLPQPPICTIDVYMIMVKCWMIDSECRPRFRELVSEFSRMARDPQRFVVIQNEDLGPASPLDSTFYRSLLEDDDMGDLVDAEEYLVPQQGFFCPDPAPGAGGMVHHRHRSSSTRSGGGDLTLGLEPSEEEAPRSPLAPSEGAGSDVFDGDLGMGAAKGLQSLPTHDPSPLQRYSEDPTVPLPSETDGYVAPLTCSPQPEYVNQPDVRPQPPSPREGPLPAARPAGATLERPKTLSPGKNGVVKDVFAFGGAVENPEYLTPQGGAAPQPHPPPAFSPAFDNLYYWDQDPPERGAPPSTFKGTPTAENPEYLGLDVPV
The test can be described thus: HER2 kinase screening assay (33P-ATP FlashPlate).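 Note: Biotin-poly(GT) 4:1 peptide captured on streptavidin FlashPlate, 33P transfer from γ-ATP read by scintillation counting, lower incorporation means inhibition, 1% DMSO final, 100 µL reaction.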 It counts as biochemical. Conditions: GST-HIS6 HER-2 aa 679 to 1255; 10 μM ATP; 1 hr at 30° C.

A further test relates to HCT-116 colon carcinoma. Description: Cell Proliferation Inhibition Assay (14C-thymidine incorporation), HCT-116.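 Note: proliferation measured as methyl 14C-thymidine uptake into new DNA, counted in 96-well scintillating microplates, compared with DMSO-only control wells.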 The class given is cell-based. Conditions: Homo sapiens, HCT-116, HCT-116 cells.
The next test concerns the target T5, CDK1 (Homo sapiens, UniProt P06493).
T5 construct: purchased New England Biolabs, Beverly, Mass; 6020; host or cells: insect cells
Description: CDK-1 kinase screening assay (33P-ATP FlashPlate). It counts as biochemical. Particulars: human CDK1 with cyclin B; 10 μM ATP; 1 hr at 30° C.

The target in a further test is T6, Aurora-A (Mus musculus, UniProt P97477).
T6 construct: polyhistidine (N)
T6 sequence (P97477 1-395): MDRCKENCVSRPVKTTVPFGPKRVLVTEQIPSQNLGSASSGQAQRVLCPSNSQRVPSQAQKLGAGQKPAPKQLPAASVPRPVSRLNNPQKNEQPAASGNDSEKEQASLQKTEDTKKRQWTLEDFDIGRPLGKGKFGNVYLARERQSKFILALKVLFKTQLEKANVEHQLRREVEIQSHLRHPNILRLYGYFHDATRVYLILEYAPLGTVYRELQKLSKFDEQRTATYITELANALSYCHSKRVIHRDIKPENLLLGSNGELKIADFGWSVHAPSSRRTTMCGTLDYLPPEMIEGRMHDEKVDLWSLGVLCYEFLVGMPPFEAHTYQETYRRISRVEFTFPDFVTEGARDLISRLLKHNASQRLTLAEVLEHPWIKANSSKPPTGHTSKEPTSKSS
The test can be described thus: Aurora-A kinase screening assay (33P-ATP FlashPlate).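 Note: His-tagged mouse Aurora-A phosphorylating a biotinylated peptide captured on streptavidin plates, read as 33P uptake by scintillation counting, 1% DMSO, inhibition scaled between per-plate maximum and minimum signals.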 It counts as biochemical. Conditions: 10 μM ATP, 1 hr at 30° C.

T5 sequence (P06493 whole entry): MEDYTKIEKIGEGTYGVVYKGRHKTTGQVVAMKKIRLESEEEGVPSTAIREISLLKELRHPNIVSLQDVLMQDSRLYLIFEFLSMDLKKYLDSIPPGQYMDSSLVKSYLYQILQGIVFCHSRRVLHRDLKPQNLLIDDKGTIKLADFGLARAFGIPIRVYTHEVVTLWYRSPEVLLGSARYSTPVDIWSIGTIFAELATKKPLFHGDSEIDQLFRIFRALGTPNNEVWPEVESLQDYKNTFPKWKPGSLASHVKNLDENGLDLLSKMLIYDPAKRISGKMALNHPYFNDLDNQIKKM
T5 sequence (P14635 whole entry partner): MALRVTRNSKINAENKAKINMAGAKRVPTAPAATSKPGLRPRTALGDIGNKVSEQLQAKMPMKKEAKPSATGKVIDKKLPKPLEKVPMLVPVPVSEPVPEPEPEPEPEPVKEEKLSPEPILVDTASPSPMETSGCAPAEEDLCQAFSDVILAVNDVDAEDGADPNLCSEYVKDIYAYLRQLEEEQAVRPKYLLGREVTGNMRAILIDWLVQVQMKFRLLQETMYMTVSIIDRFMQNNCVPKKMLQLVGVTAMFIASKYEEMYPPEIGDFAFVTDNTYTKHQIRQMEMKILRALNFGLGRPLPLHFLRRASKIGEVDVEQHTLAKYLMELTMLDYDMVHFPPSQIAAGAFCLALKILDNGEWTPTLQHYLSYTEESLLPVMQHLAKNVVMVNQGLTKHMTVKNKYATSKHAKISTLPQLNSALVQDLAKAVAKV
T3 sequence (O08775 786-1343): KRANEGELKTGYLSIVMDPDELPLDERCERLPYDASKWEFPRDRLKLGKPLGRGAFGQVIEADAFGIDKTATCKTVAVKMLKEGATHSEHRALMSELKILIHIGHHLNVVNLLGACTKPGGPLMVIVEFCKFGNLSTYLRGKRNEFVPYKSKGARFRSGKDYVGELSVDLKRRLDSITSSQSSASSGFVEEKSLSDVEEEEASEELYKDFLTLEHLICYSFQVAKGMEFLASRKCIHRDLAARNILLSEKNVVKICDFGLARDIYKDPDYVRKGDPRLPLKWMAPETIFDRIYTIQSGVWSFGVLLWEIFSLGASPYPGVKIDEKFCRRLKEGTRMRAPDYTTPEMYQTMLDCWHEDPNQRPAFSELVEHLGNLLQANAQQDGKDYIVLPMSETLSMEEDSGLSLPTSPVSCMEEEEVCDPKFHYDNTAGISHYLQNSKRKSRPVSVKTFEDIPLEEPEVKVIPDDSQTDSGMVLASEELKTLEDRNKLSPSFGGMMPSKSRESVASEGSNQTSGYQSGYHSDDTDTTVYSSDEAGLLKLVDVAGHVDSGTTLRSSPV

For the compound `COc1ccc2[nH]c(-c3n[nH]c4ncc(-c5cncc(CNC(C)C)c5)cc34)nc2c1` [Cpd 102, isopropyl-{5-[3-(5-methoxy-1H-benzoimidazol-2-yl)-1H-pyrazolo[3,4-b]pyridin-5-yl]-pyridin-3-ylmethyl}-amine], the IC50 was 120 nM in the test on A375 malignant melanoma; roughly 1000 nM on RET; 11.7 nM on c-Src kinase; 47.2 nM in test [1]; 269 nM against VEGF-R2; 10700 nM on HER2. The IC50 in the test on HCT-116 colon carcinoma stood at 106 nM; on CDK1, 3.2 nM; against Aurora-A, 359 nM.

For the compound `COCc1cccc2[nH]c(-c3n[nH]c4ncc(-c5cncc(CN)c5)cc34)nc12` [Cpd 73, C-{5-[3-(4-methoxymethyl-1H-benzoimidazol-2-yl)-1H-pyrazolo[3,4-b]pyridin-5-yl]-pyridin-3-yl}-methylamine], the 50% inhibitory concentration (IC50) in the test with A375 malignant melanoma was 678 nM; against RET, greater than 10000 nM; at c-Src kinase, 823 nM; in [1] it was 2550 nM; against VEGF-R2, greater than 10000 nM; against HER2, greater than 10000 nM. Besides, the IC50 came out at 412 nM in the test with HCT-116 colon carcinoma, 42.7 nM against CDK1 and 4750 nM against Aurora-A.

`FC(F)(F)Oc1ccc2[nH]c(-c3n[nH]c4ncc(-c5cccnc5)cc34)nc2c1` [Cpd 94, 5-pyridin-3-yl-3-(5-trifluoromethoxy-1H-benzoimidazol-2-yl)-1H-pyrazolo[3,4-b]pyridine]: the IC50 in the test with A375 malignant melanoma was 645 nM; on RET, greater than 100000 nM; at c-Src kinase, 756 nM; in test [1] it was 799 nM; against HER2, greater than 100000 nM; with HCT-116 colon carcinoma it was 519 nM. For the same compound, the IC50 was 6 nM at CDK1 and greater than 10000 nM against Aurora-A.

As for `COCCNCc1cncc(-c2cnc3[nH]nc(-c4nc5c(COC)cccc5[nH]4)c3c2)c1` [Cpd 75, (2-methoxy-ethyl)-{5-[3-(4-methoxymethyl-1H-benzoimidazol-2-yl)-1H-pyrazolo[3,4-b]pyridin-5-yl]-pyridin-3-ylmethyl}-amine], the IC50 is 205 nM with A375 malignant melanoma; greater than 10000 nM against RET; 378 nM at c-Src kinase; 594 nM in [1]; 1640 nM at VEGF-R2; greater than 10000 nM at HER2. Besides, the half-maximal inhibitory concentration (IC50) came to 163 nM in the test on HCT-116 colon carcinoma, 63.6 nM against CDK1 and 4500 nM at Aurora-A.

Take `COCc1cccc2[nH]c(-c3n[nH]c4ncc(-c5cncc(CNCCO)c5)cc34)nc12` [Cpd 77, 2-({5-[3-(4-methoxymethyl-1H-benzoimidazol-2-yl)-1H-pyrazolo[3,4-b]pyridin-5-yl]-pyridin-3-ylmethyl}-amino)-ethanol]: the IC50 is 1610 nM with A375 malignant melanoma; greater than 10000 nM against RET; 183 nM on c-Src kinase; 1620 nM in test [1]; 349 nM against VEGF-R2; greater than 10000 nM against HER2. In addition, the IC50 was 643 nM in the test on HCT-116 colon carcinoma, 13 nM against CDK1 and 3180 nM against Aurora-A.

On to `OCCOc1ccc2[nH]c(-c3n[nH]c4ncc(-c5cccnc5)cc34)nc2c1` [Cpd 95, 2-[2-(5-pyridin-3-yl-1H-pyrazolo[3,4-b]pyridine-3-yl)-1H-benzoimidazol-5-yloxyl]-ethanol], for which the IC50 in the test on A375 malignant melanoma is 2650 nM; against RET, greater than 1000 nM; against c-Src kinase it was 74 nM; in [1], 1930 nM; against HER2, greater than 100000 nM; in the test with HCT-116 colon carcinoma, 1410 nM. For the same compound, the IC50 on CDK1 amounted to 3.4 nM; on Aurora-A, 229 nM.

Consider `COCc1cccc2[nH]c(-c3n[nH]c4ncc(-c5cc[nH]c5)cc34)nc12` [Cpd 40, 3-(4-methoxymethyl-1H-benzoimidazol-2-yl)-5-(1H-pyrrol-3-yl)-1H-pyrazolo[3,4-b]pyridine], for which the 50% inhibitory concentration (IC50) is 73.7 nM with A375 malignant melanoma; 327 nM on c-Src kinase; 1220 nM in test [1]; 462 nM at VEGF-R2; greater than 100000 nM against HER2; 56.5 nM in the test with HCT-116 colon carcinoma. For the same compound, the IC50 is 1190 nM on CDK1 and roughly 1000 nM against Aurora-A.

For the compound `COCc1cccc2[nH]c(-c3n[nH]c4ncc(-c5cncc(CNCCN6CCOCC6)c5)cc34)nc12` [Cpd 74, {5-[3-(4-methoxymethyl-1H-benzoimidazol-2-yl)-1H-pyrazolo[3,4-b]pyridin-5-yl]-pyridin-3-ylmethyl}-(2-morpholin-4-yl-ethyl)-amine], the IC50 is 459 nM in the test on A375 malignant melanoma; roughly 100000 nM on RET; 954 nM against c-Src kinase; 4780 nM in test [1]; 284 nM against VEGF-R2; roughly 100000 nM at HER2. Also, the IC50 was 386 nM in the test with HCT-116 colon carcinoma, 551 nM against CDK1 and 6820 nM on Aurora-A.

`COCc1cccc2[nH]c(-c3n[nH]c4ncc(-c5cncc(C=O)c5)cc34)nc12` [Cpd 41, 5-[3-(4-methoxymethyl-1H-benzoimidazol-2-yl)-1H-pyrazolo[3,4-b]pyridin-5-yl]-pyridine-3-carbaldehyde]: the IC50 with A375 malignant melanoma is 265 nM; at RET, greater than 100000 nM; against c-Src kinase it was 92.5 nM; in test [1], 1220 nM; against VEGF-R2 it was greater than 1000 nM; against HER2, roughly 100000 nM. The IC50 was 161 nM in the test with HCT-116 colon carcinoma, 231 nM at CDK1 and 248 nM at Aurora-A.

As to `CCNCc1cncc(-c2cnc3[nH]nc(-c4nc5c(COC)cccc5[nH]4)c3c2)c1` [Cpd 42, ethyl-{5-[3-(4-methoxymethyl-1H-benzoimidazol-2-yl)-1H-pyrazolo[3,4-b]pyridin-5-yl]-pyridin-3-ylmethyl}-amine], the IC50 in the test on A375 malignant melanoma was 239 nM; against RET, 7630 nM; at c-Src kinase, 358 nM; in test [1], 298 nM; on VEGF-R2, roughly 1000 nM; against HER2 it was greater than 10000 nM. For the same compound, the concentration for half-maximal inhibition (IC50) in the test with HCT-116 colon carcinoma is 280 nM; against CDK1, 9.8 nM; on Aurora-A it was 4460 nM.

As to `COCc1cccc2[nH]c(-c3n[nH]c4ncc(-c5cncc(CNCCN(C)C)c5)cc34)nc12` [Cpd 76, N′-{5-[3-(4-methoxymethyl-1H-benzoimidazol-2-yl)-1H-pyrazolo[3,4-b]pyridin-5-yl]-pyridin-3-ylmethyl}-N,N-dimethyl-ethane-1,2-diamine], the IC50 was 178 nM in the test with A375 malignant melanoma; greater than 100000 nM on RET; 1010 nM against c-Src kinase; 10100 nM in test [1]; 1370 nM against VEGF-R2; greater than 100000 nM on HER2. Further, the IC50 with HCT-116 colon carcinoma was determined as 255 nM; against CDK1 it was 595 nM; at Aurora-A it was 6600 nM.
